# How the values were obtained:
# [1] = cited from earlier work; for FaSSIF solubility (converted): conversion of the µM value
# [2] = In vitro, non-sink, gastric transfer dissolution (0.01 N HCl then FaSSIF); format: physicochemical
# Protocol: An in vitro, non-sink, gastric transfer dissolution method was developed to analyze the dissolution of abiraterone API, the generic abiraterone acetate tablets, the binary KSDs, to select ternary component for KSDs, as well as to analyze the dissolution of the ternary KSDs. For the dissolution analysis of abiraterone API and the binary and ternary KSDs, the samples (equivalent to 31 mg of abiraterone API) were loaded in an Erlenmeyer flask (dissolution vessel) containing 35 mL of 0.01N HCl (pH 2.0), placed in an incubator–shaker (Excella E24 (New Brunswick Scientific, Edison, NJ, USA)) set to 37 °C and a rotational speed of 180 rpm. After 30 min, 35 mL of FaSSIF (prepared in a 50 mM phosphate buffer at pH 6.8) was added to the dissolution vessel. At predetermined time points, samples were drawn from the dissolution vessel and centrifuged using an ultracentrifuge at 92,000 rpm for 90 s (Airfuge™, Beckman, Indianapolis, IN, USA). The supernatants were further diluted using the HPLC diluent and analyzed using the respective HPLC methods mentioned above. For the generic abiraterone acetate tablets, the whole tablet was analyzed, and the dissolution media volumes were scaled accordingly. For the selection of the ternary component, 35 mg of secondary polymer candidates were added in 35 mL of 0.01 N HCl (pH 2.0), and the dissolution of the binary KSD was conducted using the method described above. The area under the drug dissolution curve (AUDC) was calculated using the linear trapezoidal method.
# For dissolution testing, we employed a two-stage, non-sink, gastric transfer dissolution method in which the sample is first exposed to acidic media, simulating fasted stomach content, followed by exposure to neutral-to-basic media, simulating fasted intestinal content.
# [3] = parameters: method as in doi:10.1021/acs.jced.8b00566; settings: cited from earlier work
# [4] = parameters: method as in doi:10.1021/acs.jced.8b00566; settings: cited from earlier work; remark: listed apart in the source
"Percent Rel. AUDC0.01 N HCl (Relative to Lot 5 KSD) ([2]; 0.01 N HCl stage, 35 mg secondary polymer added externally where stated) [%]",Percent Rel. AUDCTotal (Relative to Lot 5 KSD) ([2]; 35 mg secondary polymer added externally to 35 mL 0.01 N HCl where stated) [%],"Percent Rel. AUDCFaSSIF (Relative to Lot 5 KSD) ([2]; FaSSIF stage, 35 mg secondary polymer added externally where stated) [%]","solubility ([2]; pH 6.8, FaSSIF stage of gastric transfer dissolution, read-out: average drug concentration (solubility) in FaSSIF media) [µg/mL]",Structure (SMILES),FaSSIF solubility [1] [µM],FaSSIF solubility (converted) [1],water solubility [3] [µg/mL],BCS (Biopharmaceutical Classification System) class [4],permeability [4]
–,–,–,–,"CC(=O)O[C@H]1CC[C@@]2(C)C(=CC[C@@H]3[C@@H]2CC[C@]2(C)C(c4cccnc4)=CC[C@@H]32)C1 [abiraterone acetate, Abiraterone acetate]",64.6 ± 5.2,~ 25.29 µg/mL,–,–,–
1.8,8.4,46.2,11.3,"C[C@]12CC[C@H](O)CC1=CC[C@@H]1[C@@H]2CC[C@]2(C)C(c3cccnc3)=CC[C@@H]12 [Abiraterone API, Abiraterone]",12.7 ± 4.2,~ 4.43 µg/mL,3.05,Class IV,low
